In brackets after ≈: the same amount, converted by molar mass.

One series in a line: LogP. It is filed as physicochemical. The source says:
LogP values of all analogs were higher than that of 1, as expected. […] The observation that the measured crystal densities of 3b, 4a and (R)-4c were lower than that of 1 supports this idea.

Series [1] in a line: Thermodynamic aqueous solubility of the most stable crystals. It is filed as physicochemical. As to conditions: phosphate buffer/EtOH (6:4), aqueous with cosolvent or surfactant or cyclodextrin, thermodynamic from solid; mixture of 0.067 M phosphate buffer (pH 6.8) and EtOH (6:4); shaken 48 h at 4 °C; most stable crystals. On the procedure:
The crystals were ground with an agate mortar and suspended in a mixture of 0.067 M phosphate buffer (pH 6.8) and EtOH (6:4). The suspension was shaken for 48 h at 4 °C, then filtered through a Millipore Millex-LG filter (0.20 μm). The filtrate was diluted in DMF and subjected to HPLC. The solubility was calculated by the absolute calibration curve method. We used a mixed solvent because the solubility in 0.067 M phosphate buffer (pH 6.8) was too low to allow quantification. EtOH is used clinically as a solubilizer for insoluble drugs such as taxol and pacritaxel. When the solutions were shaken at 37 °C, hydrolysis of the ester moiety occurred, and therefore the suspensions were shaken at 4 °C.

A short description of series [2]: Membrane permeability by retention on IAM column. As to conditions: IAM.PC.DD2 column, 0.1 M phosphate buffer (pH 6.8) in 60% CH3CN, 1.0 mL/min, 37 °C. It is filed as in vitro ADME. The method, then:
Membrane permeability was determined by HPLC on an IAM.PC.DD2 column (Regis Technologies, Inc., 10 μm, 300 Å, 30 mm × 4.6 mm) eluted with mobile phase consisting of 0.1 M phosphate buffer (pH 6.8) and CH3CN (4:6) at a flow rate of 1.0 mL/min, with UV monitoring at 254 nm, 37 °C.
Firstly, we evaluated membrane permeability by using an Immobilized Artificial Membrane (IAM) column, which contains silica gel bearing phosphatidylcholine and widely utilized to predict membrane permeability[31],[32].

Series [3] is described as follows: Aqueous solubility in 0.067 M phosphate buffer pH 7.4. It is filed as physicochemical. On the procedure: Cyclofenil (1) is an antagonist of estrogen receptors (ER) α and β that is clinically used to treat menstrual disturbances, anovulatory infertility and menopausal symptoms (Fig. 1). However, 1 has poor aqueous solubility (< 1 μg/mL in 0.067 M phosphate buffer pH 7.4). We considered that this low solubility might be due to the symmetric structure (σ = 2, point group: C2v), and we hypothesized that chemical modification of 1 to an asymmetric structure (point group: Cs and C1) would improve the aqueous solubility. To investigate the relationship between molecular shape (symmetry) and aqueous solubility, we focused on a small chemical modification, that is, introduction of a hydrophobic alkyl group. Cyclofenil (1) is a prodrug that is hydrolyzed by esterases after administration, and the active form is diol 2. Therefore, we initially considered that replacement of an acetyl group on 1 with a different acyl group (3a–d) might improve the aqueous solubility without loss of biological activity. As a second approach, we designed methylated analogs 4a–c substituted at the 2-/3-position of the phenyl group or the 3-position of the cyclohexyl group, respectively. We also designed symmetrical analogs 5a–c and 6 for comparison.

Series [4] can be described thus: Crystal density (X-ray crystallography). It counts as physicochemical. As to conditions: measured crystal density.
For series [5], the system named is human cryopreserved hepatocytes. The experiment in a line: Metabolic rate of prodrugs in human cryopreserved hepatocytes. It counts as in vitro ADME. As to conditions: human hepatocytes 1.0×10^6 cells/mL, 50 μM, 2 h, 37 °C. On the procedure: The metabolic rate of prodrugs was evaluated using human cryopreserved hepatocytes (Table 3). Although the metabolic rate of 3d with a bulky acyl group was decreased, most of the asymmetric structural analogs, including those with improved aqueous solubility (3b, 4a, (R)-4c), were metabolized to the active form as quickly as 1. Thus, we concluded that the chemical modifications applied here had little effect on the metabolic rate.
(§1) Test compounds (final 50 μM) in DMSO (final 0.5%) were added to a suspension of human hepatocytes (HMCS1S, Thermo Fisher Scientific) at a density of 1.0×10^6 cells/mL. The cells were incubated at 37 °C in humidified incubator (5% CO2) for 2 h, and then acetonitrile was added to stop the reaction. The mixture was vortexed and centrifuged at 15000 rpm for 10 min. HPLC analysis of the supernatant was performed on an analytical column (ODS reversed-phase column, 5 μm, 4.6 mm x 150 mm) eluted with a mobile phase consisting of H2O and CH3CN at a flow rate of 1.0 mL/min at 37 °C, with UV monitoring at 254 nm. Because some analogs were hydrolyzed in the absence of hepatocytes, we also evaluated the hydrolysis rate without hepatocytes.

Series [6] can be described thus: Hydrolysis of prodrugs without hepatocytes. It counts as in vitro ADME. As to conditions: 50 μM, 2 h, 37 °C. The method, then:
as §1

The term logP denotes the decadic logarithm of the partition coefficient of the neutral form, usually between octanol and water. For orientation: solubility means the concentration that dissolves in the medium under given conditions. `CC(=O)Oc1ccc(C(=C2CCCCC2)c2ccc(OC(C)=O)cc2)cc1` [Compound 1, cyclofenil] came in with a lipophilicity (logP) in the series “LogP” of 4.91. The solubility at 48 h in series [1] was found to be 7.76 µg/mL (≈ 21.3 µM). Moreover, the “Retention time on IAM column” value in series [2] is on record as 3.15 min. For the same molecule, the solubility in series [3] was below 1 µg/mL. The Crystal density in series [4] amounted to 1.268 g/mL. For the same molecule, in series [5], the “Hydrolysis rate with hepatocytes” value was 100%. Moreover, the “Hydrolysis rate without hepatocytes” value in series [6] turned out to be 14.8%.

The values above are taken from paper PMC8209153, “Improvement in aqueous solubility of achiral symmetric cyclofenil by modification to a chiral asymmetric analog” (Scientific Reports, 2021).
